# Earlier results, collected in patent publication US6365176B1, “Nutritional supplement for patients with type 2 diabetes mellitus for lipodystrophy” (Functional Foods, Inc., priority 2000, dated 2002).
# What was measured:
# [1] = in vivo
# [2] = doses between 200 and 1,000 μg daily
Compound,glycemic index (GI) [1],fasting plasma glucose concentrations [2]
O=C(CO)[C@@H](O)[C@H](O)[C@H](O)CO [Fructose],32,–
chromium picolinate [Chromium as picolinate],–,beneficial effect
